Test results reported in patent US10596239B2, “Peptide mixture” (TARGOVAX ASA, priority 2013, dated 2020).
Values joined by “and” are separate entries in the source; they are usually repeats but may differ in a detail not shown here. Equal entries are not always repeated.

Experiments:
[1] = system: splenocytes; test: Splenocyte proliferation assay (3H-thymidine) following subcutaneous vaccination of mice with TG02; type: cell-based, BALB/c mice; details: 1 μg/200 μL ConA, 5 days
Method: In this Example, mice were repeatedly vaccinated subcutaneously with TG02, in order to analyse the immune response. Following the vaccination, splenocytes were harvested, and the proliferative response of the splenocytes was measured.
The study was conducted with 3 groups, each compromising 10 female BALB/c mice. The start of the study was performed on two separate days on which 5 of the animals per group were treated. Therefore the groups were divided into part I and part II. The animals were treated subcutaneously at different time points (Table 12).
In all groups the test item was administered at repeated time points (Table 15) by subcutaneous injection between the nape of the neck and the shoulder. The application volume for all groups was 0.1 mL (0.80 mg TG02).
The spleen of all animals was removed, transferred to cell culture medium (RPMI 1640 medium supplemented with 10% FCS, 100 U/ml Penicillin, 100 μg/mL Streptomycin, 2 mM L-Glutamine, and 50 μM beta-mercaptoethanol) and stored on ice. All steps were performed sterile and cells were kept on ice.
A single cell suspension from splenic cells was generated using a cell strainer. After centrifugation (350 g, 5 min, 5±3° C.), supernatant was removed and the cell pellet was resuspended in ACK buffer and incubated for 5 min at RT. 10 mL cell culture medium was added. The samples were left 5 min on bench top to let the cell debris sediment. The suspension above the cell debris was transferred into another tube and was centrifuged (350 g, 5 min, 5±3° C.). The supernatant was removed and the cell pellet was resuspended in 10 mL cell culture medium. After counting of cells, 0.2 Mio cells were seeded in a 96 well plate (180 μL per well; 1,1 *10^6 cells/mL). 9 replicates were plated on each plate for each spleen. • (1) 1 plate for harvesting of supernatant for cytokine measurement after 24 h (results not shown) • (2) 1 plate for harvesting of supernatant for cytokine measurement after 48 h (results not shown) • (3) 1 plate for the proliferation assay
The following stimulations were performed: • 3 replicates: unstimulated (addition of 20 μL cell culture medium) • 3 replicates: stimulation with 10 μM TG02 (8 peptides, 10 μM end concentration per peptide, addition in 20 μL cell culture medium) • 3 replicates: stimulation with 1 μg/200 μL, ConA (Concanavalin A) (addition of 1 μg ConA in 2.0 μL cell culture medium)
Incubation at 37° C. and 5% CO2 for 24 h (1), […] or 5 days (3).
Proliferation Assay • (3) After 5 days, 1 μCi/well ^3H-Thymidine was added to the samples, which were then incubated for 18 h at 37° C. and 5% CO2. The plates were then frozen at ≤−20° C.
Plates were thawed at RT. After washing off the harvester, the samples were transferred to a filter plate using the harvester followed by 5 washing steps using water. Filter plates were dried at RT overnight. A foil was stuck to the bottom of the filter plates and 20 μL scintillation fluid was added to the wells. After incubation of 1 h at RT, the samples were measured using a TopCount NXT and the stimulation index (SI) was calculated. SI=CPM of stimulated samples/CPM of control samples.

[2] = system: T cells; test: 3-days T cell proliferation assay (3H-thymidine) after three rounds of in vitro stimulation of PBMC bulk cultures with RAS peptides; type: cell-based, human; details: bulk cultures stimulated three rounds with TG02 + 13R, 10 μM peptide
Method: In this example, Buffy coats were collected from 4 normal human donors (Buffy 1, Buffy 2, Buffy 3, and Buffy 4) and were cultured in vitro. The in vitro PBMCs were stimulated with a single RAS peptide or a mixture of RAS peptides, and T cell proliferation assays performed.
The procedure must be performed at room temperature until point 5. All handling of cells in the open is done in a vertical laminar flow hood. • 1. Rapidly transfer the vials, each vial with frozen PBMC from a buffy coat (Buffy 1, Buffy 2, Buffy 3, and Buffy 4), to a water bath at 37° C. • 2. Shake the vials manually at regular intervals (approx. 2-3 min.) and remove them from the water bath while some ice is still present. • 3. When all the ice is melted, transfer 1 ml of CellGro DC medium drop-wise to the cell suspension. • 4. Transfer the cell suspension to a 50 ml tube containing 20 ml of CellGro DC medium. • 5. Centrifuge cells at 500 G for 5 min at room temperature. • 6. Resuspend the cells in 5 ml CellGro DC medium, • 7. Count the number of viable cells using a Bürker chamber or KOVA Galsstic slides and adjust the cell concentration to 2×10^6cells/ml in complete CellGro DC medium (see recipe). Total cell numbers: Buffy 1-45×10^6, Buffy 2-27.5×10^6, Buffy 3-40.5×10^6, and Buffy 4-40.5×10^6 cells. b. Bulk Cultures for Increasing Number of RAS Peptide Reactive T Cells • 1. […]

Substance	Counts per minute (CPM), Splenocytes + ConA, mean ([1]; Mean Mouse #4, vaccinated with TG02)	Counts per minute (CPM), Splenocytes + ConA, mean ([1]; Mean Mouse #7, vaccinated with TG02) [CPM]	Counts per minute (CPM), Splenocytes + ConA, mean ([1]; Mean Mouse #24, vaccinated with TG02 + ViscoGel) [CPM]	Counts per minute (CPM), Splenocytes + ConA, mean ([1]; Mean Mouse #29, vaccinated with TG02 + ViscoGel)	Counts per minute (CPM), Splenocytes + ConA, replicate ([1]; Mouse #4, vaccinated with TG02)	Counts per minute (CPM), Splenocytes + ConA, replicate ([1]; Mouse #7, vaccinated with TG02)	Counts per minute (CPM), Splenocytes + ConA, replicate ([1]; Mouse #24, vaccinated with TG02 + ViscoGel)	Counts per minute (CPM), Splenocytes + ConA, replicate ([1]; Mouse #29, vaccinated with TG02 + ViscoGel)	Counts per minute (CPM), Splenocytes + ConA, mean ([1]; Mouse #30 (last line, mean), vaccinated with TG02 + ViscoGel)	Counts per minute (CPM), Splenocytes + ConA, replicate ([1]; Mouse #30, vaccinated with TG02 + ViscoGel)	Counts per minute (CPM), APC + T cell + 13C, replicate ([2]; Donor #3)	Counts per minute (CPM), APC + T cell + 13C, mean ([2]; Mean Donor #3) [CPM]
Concanavalin A [ConA]	15,210 CPM	6158	8823	10,935 CPM	15,113 CPM and 12,612 CPM and 17,906 CPM	5305 CPM and 6252 CPM and 6916 CPM	7834 CPM and 8578 CPM and 10,057 CPM	9480 CPM and 13,292 CPM and 10,033 CPM	36,687 CPM	32,205 CPM and 35,668 CPM and 42,149 CPM		
KLVVVGAGCVGKSALTI (listed as Homo sapiens) [13C]											27813 CPM and 32522 CPM and 28869 CPM	29735
